Results published in the NIST ThermoML archive (doi:10.1021/je900916e).

Assay: cn = amount concentration of the nth substance listed, in mol/dm3
Conditions: 101 kPa, Liquid, Advanced Conductivity Orion 162A

C[N+](C)(C)C.O=C([O-])C(F)(F)C(F)(F)C(F)(F)C(F)(F)C(F)(F)C(F)(F)C(F)(F)F [tetramethylammonium perfluorooctanoate] + O
Conditions | electrical conductivity [S/m]
288.15 K, c1 = 0.001316 | 0.00725
288.15 K, c1 = 0.002597 | 0.0135
288.15 K, c1 = 0.003846 | 0.01958
288.15 K, c1 = 0.005063 | 0.0253
288.15 K, c1 = 0.00625 | 0.0306
288.15 K, c1 = 0.007407 | 0.0357
288.15 K, c1 = 0.008536 | 0.0405
288.15 K, c1 = 0.009638 | 0.0451
288.15 K, c1 = 0.01071 | 0.0494
288.15 K, c1 = 0.01176 | 0.0536
288.15 K, c1 = 0.01279 | 0.0574
288.15 K, c1 = 0.01379 | 0.0598
288.15 K, c1 = 0.01477 | 0.0611
288.15 K, c1 = 0.01573 | 0.0622
288.15 K, c1 = 0.01704 | 0.0637
288.15 K, c1 = 0.01848 | 0.0656
288.15 K, c1 = 0.02004 | 0.0675
288.15 K, c1 = 0.02171 | 0.0693
288.15 K, c1 = 0.02331 | 0.0714
288.15 K, c1 = 0.02485 | 0.0732
293.15 K, c1 = 0.001316 | 0.00808
293.15 K, c1 = 0.002597 | 0.01512
293.15 K, c1 = 0.003846 | 0.0218
293.15 K, c1 = 0.005063 | 0.0282
293.15 K, c1 = 0.00625 | 0.0341
293.15 K, c1 = 0.007407 | 0.0401
293.15 K, c1 = 0.008537 | 0.0455
293.15 K, c1 = 0.009638 | 0.0503
293.15 K, c1 = 0.01071 | 0.0551
293.15 K, c1 = 0.01176 | 0.0597
293.15 K, c1 = 0.01279 | 0.0634
293.15 K, c1 = 0.01379 | 0.0657
293.15 K, c1 = 0.01477 | 0.0675
293.15 K, c1 = 0.01573 | 0.0691
293.15 K, c1 = 0.01667 | 0.0706
293.15 K, c1 = 0.01803 | 0.0726
293.15 K, c1 = 0.01935 | 0.0745
293.15 K, c1 = 0.02063 | 0.0764
293.15 K, c1 = 0.02187 | 0.0781
293.15 K, c1 = 0.02347 | 0.0803
293.15 K, c1 = 0.025 | 0.0825
298.15 K, c1 = 0.001234 | 0.0087
298.15 K, c1 = 0.002439 | 0.01642
298.15 K, c1 = 0.003614 | 0.0236
298.15 K, c1 = 0.004762 | 0.0304
298.15 K, c1 = 0.005882 | 0.0371
298.15 K, c1 = 0.006977 | 0.0435
298.15 K, c1 = 0.008046 | 0.0498
298.15 K, c1 = 0.009091 | 0.0554
298.15 K, c1 = 0.01011 | 0.0612
298.15 K, c1 = 0.01111 | 0.0661
298.15 K, c1 = 0.01209 | 0.0713
298.15 K, c1 = 0.01304 | 0.0744
298.15 K, c1 = 0.01398 | 0.0766
298.15 K, c1 = 0.01489 | 0.0785
298.15 K, c1 = 0.01579 | 0.0801
298.15 K, c1 = 0.0171 | 0.0823
298.15 K, c1 = 0.01837 | 0.0844
298.15 K, c1 = 0.02 | 0.087
298.15 K, c1 = 0.02157 | 0.0895
298.15 K, c1 = 0.02308 | 0.092
298.15 K, c1 = 0.02453 | 0.0944
298.15 K, c1 = 0.02593 | 0.0968
303.15 K, c1 = 0.001316 | 0.00997
303.15 K, c1 = 0.002597 | 0.01874
303.15 K, c1 = 0.003846 | 0.0272
303.15 K, c1 = 0.005063 | 0.0352
303.15 K, c1 = 0.00625 | 0.0427
303.15 K, c1 = 0.007407 | 0.0498
303.15 K, c1 = 0.008537 | 0.0566
303.15 K, c1 = 0.009638 | 0.063
303.15 K, c1 = 0.01071 | 0.0691
303.15 K, c1 = 0.01176 | 0.0748
303.15 K, c1 = 0.01279 | 0.0795
